Assay results published in patent US5661160A, “Substituted pyrrolidin-3-yl-alkyl-piperidines” (Merrell Pharmaceuticals Inc., priority 1995, dated 1997).
Where a name gives a salt, the structure may show the parent alone.

Columns and labels:
NK1 and NK2 receptors [1] = experiment: Antagonism of capsaicin aerosol-induced respiratory effects in conscious guinea pigs, oral; format: in vivo, guinea pig; conditions: for SRE NUMBER: coughs/gasps during 19 min capsaicin exposure, mean and SEM; for effect on capsaicin aerosol effects (in words): oral
Experimental: (§1) In vivo experiments were performed using male Duncan Hartley guinea pigs (250-350 g). Changes in conscious breathing patterns were monitored in four animals simultaneously using modified whole body plethysmography consisting of four small plexiglass boxes each connected to a reference box via Validyne DP 45-16 differential pressure transducers. The 4 boxes were equipped with an air supply line (also used for aerosol delivery) and an exhaust air line. Supply and exhaust lines were of the same length and narrow bore and arose from a common supply chamber and vented to a common exhaust chamber. This system was used to ensure that fluctuations in supply air and atmospheric pressure would remain in phase and be eliminated from the net signal by the differential pressure transducers. The analog pressure signals were digitalized via a Data Translation DT2821 A to D board. Data were collected at a rate of 100 samples/second/animal. Each cycle of pressure change was analyzed using the following parameters: rising and falling slope determined between minimum and maximum pressures, the ratio of rising over falling slope, and the magnitude of the change between initial trough pressure and peak cycle pressure. Using these values (and observing the animals) the pressure cycles were characterized into normal breaths, forced exhalations (apparent by abdominal heaving), significant respiratory events (SREs; usually coughs, less often sneezes or gasps which were characterized by transient, extremely large pressure increases which were distinguishable from noise) and movement/noise with a PCAT 286 running a System V UNIX operating system. Dyspnea was defined as a significant, sustained increase in plethysmograph pressure which was associated with an observable shift to labored breathing in the animal.
(§2) During the course of a typical experiment in which airway responsiveness to various bronchoconstricting agents was examined, aerosols were delivered for 19 min (0.33 ml/min) using a DeVilbiss Ultraneb 99 ultrasonic nebulizer and animals monitored during this time. Prior to nebulization, 1 min of resting breathing was collected to establish a baseline pressure. […] The vehicle for nebulization of all bronchoconstrictive agents was phosphate buffered saline (pH 7.4) which elicited no respiratory effects itself. Putative tachykinin antagonists were administered either (i.v.) 20 min prior to onset of aerosol exposure or orally 1 hour prior to onset (to guinea pigs after an overnight fast).
(§3) Capsaicin aerosol is known to promote release of the tachykinins SP and NKA from sensory nerves in the airways of guinea pigs which may then act upon NK1 and NK2 receptors, respectively to elicit respiratory effects.

NK1 and NK2 receptors [2] = experiment: Antagonism of capsaicin aerosol-induced respiratory effects in conscious guinea pigs, intravenous; format: in vivo, guinea pig; conditions: for SRE NUMBER: coughs/gasps during 19 min capsaicin exposure, mean and SEM; for effect on capsaicin-induced respiratory effects (in words): i.v.
Experimental: as §1, §2, §3

[3] = molecular target: T1, NK1 receptor (UC11 cells) (Homo sapiens, UniProt P25103); experiment: Antagonism of NK1 receptor mediated (SP-induced) phosphatidylinositol turnover in UC11 cells; format: cell-based
T1 construct: endogenous in cells; host or cells: UC11 cells
T1 sequence (P25103 whole entry): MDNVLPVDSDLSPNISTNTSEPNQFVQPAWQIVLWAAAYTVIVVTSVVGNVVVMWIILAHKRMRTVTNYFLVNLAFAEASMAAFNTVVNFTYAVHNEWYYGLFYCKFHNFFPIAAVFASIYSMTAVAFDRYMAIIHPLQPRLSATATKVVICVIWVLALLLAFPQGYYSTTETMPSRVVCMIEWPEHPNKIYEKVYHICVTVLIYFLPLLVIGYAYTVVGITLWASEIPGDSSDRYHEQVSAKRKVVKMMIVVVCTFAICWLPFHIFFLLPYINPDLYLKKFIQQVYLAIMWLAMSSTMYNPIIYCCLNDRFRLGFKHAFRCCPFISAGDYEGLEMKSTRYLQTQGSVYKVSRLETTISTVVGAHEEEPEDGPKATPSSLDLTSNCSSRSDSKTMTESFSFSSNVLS
Experimental: Tachykinin-mediated inositol phosphate accumulation was measured in UC11 or SKLKB82#3 cells in the presence and absence of NK1 or NK2 receptor antagonists, respectively. Tissues were incubated in Krebs-Henseleit buffer at 37° C. with 95% O2 -5% CO2 gassing. Tissues were then incubated with fresh buffer containing 100 μCi of myo-[2-^3 H(N)] inositol at 37° C. for 60 min with gentle gassing. After washing twice in 5 ml room temperature buffer containing 10 mM LiCl, tissues were incubated for 30 min at room temperature with a buffer change at 15 min. Buffer was removed and Krebs-Henseleit buffer (containing 40 μg/ml bacitracin, 4 μg/ml each of leupeptin and chymostatin, 0.1% bovine serum albumin and 10 mM each of thiorphan and LiCl) added. After 15 min, SP was added to UC11 cells or NKA to SKLKB82#3 cells at various concentrations to start the reaction. […] The third elution was collected and 1 ml counted in 7 ml scintillation fluid. A 50 μl aliquot of the organic (bottom) phase was removed, dried in a scintillation vial and counted in 7 ml scintillation fluid.
(§4) The ratio of DPM in the aqueous phase aliquot (total inositol phosphates) to the DPM in the 50 μl organic phase aliquot (total [^3 H]-inositol incorporated) was calculated for each sample. Data are expressed as a percent of agonist-induced accumulation of [^3 H]-inositol phosphates over basal levels. […] Dose-response graphs were constructed and the abilities of the test compounds to inhibit tachykinin-induced phosphatidyinositol turnover determined with the aid of a computer program. […] Data is expressed as percent stimulation of total inositol phosphate accumulation over basal levels and normalized to the maximum response produced by SP. […] Schild analysis is performed using dose response curves (such as those presented in FIGS. 1a and 1b) to obtain a value indicative of the Strength of a competitive antagonist and is expressed as the pA2, which is the negative logarithm of the molar concentration of antagonist which reduces the effect of a dose of agonist to one-half of that expected at the dose of agonist.

[4] = molecular target: T2, NK2 receptor (SKLKB82#3 cells) (Bos taurus, UniProt P05363); experiment: Antagonism of NK2 receptor mediated (NKA-induced) phosphatidylinositol turnover in SKLKB82#3 cells; format: cell-based; conditions: for NK-2 RECEPTOR -SLOPE: Schild analysis, NKA, mean (95% confidence limits)
T2 construct: expressed in transfected cells; host or cells: SKLKB82#3 cells (mouse B82 fibroblasts, own knowledge)
T2 sequence (P05363 1-384): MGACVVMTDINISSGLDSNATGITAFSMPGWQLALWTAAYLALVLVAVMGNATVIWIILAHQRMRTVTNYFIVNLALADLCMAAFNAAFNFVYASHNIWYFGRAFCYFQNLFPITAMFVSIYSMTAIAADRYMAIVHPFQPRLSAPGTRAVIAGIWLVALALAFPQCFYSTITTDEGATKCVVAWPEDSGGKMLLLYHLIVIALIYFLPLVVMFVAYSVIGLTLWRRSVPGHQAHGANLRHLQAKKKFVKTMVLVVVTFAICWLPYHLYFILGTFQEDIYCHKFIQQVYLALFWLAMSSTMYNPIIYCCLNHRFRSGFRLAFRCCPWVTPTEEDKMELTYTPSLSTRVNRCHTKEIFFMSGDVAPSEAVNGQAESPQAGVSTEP
Experimental: Tachykinin-mediated inositol phosphate accumulation was measured in UC11 or SKLKB82#3 cells in the presence and absence of NK1 or NK2 receptor antagonists, respectively. Tissues were incubated in Krebs-Henseleit buffer at 37° C. with 95% O2 -5% CO2 gassing. Tissues were then incubated with fresh buffer containing 100 μCi of myo-[2-^3 H(N)] inositol at 37° C. for 60 min with gentle gassing. After washing twice in 5 ml room temperature buffer containing 10 mM LiCl, tissues were incubated for 30 min at room temperature with a buffer change at 15 min. Buffer was removed and Krebs-Henseleit buffer (containing 40 μg/ml bacitracin, 4 μg/ml each of leupeptin and chymostatin, 0.1% bovine serum albumin and 10 mM each of thiorphan and LiCl) added. After 15 min, SP was added to UC11 cells or NKA to SKLKB82#3 cells at various concentrations to start the reaction. After incubation for 60 min at room temperature the reaction was terminated by addition of 930 μl chloroform:methanol (1:2 by volume) to each tube, followed by 310 μl chloroform and 310 μl doubly distilled water. Samples were vortexed, centrifuged, and 0.9 ml of the aqueous (top) phase removed and added to 2 ml ddH2 O. The mixture was vortexed and loaded onto a 50% Bio-Rad AG 1-X8 (formate form, 100-200 mesh) exchange column (Bio-Rad Laboratories, Hercules, Calif.). The columns were washed, in order, with: 1) 10 ml doubly distilled water, 2) 5 ml of 5 mM disodium tetraborate/60 mM sodium formate, and 3) 5 ml of 1M ammonium formate/0.1M formic acid. The third elution was collected and 1 ml counted in 7 ml scintillation fluid. A 50 μl aliquot of the organic (bottom) phase was removed, dried in a scintillation vial and counted in 7 ml scintillation fluid.
as §4

NK2 receptor = experiment: Antagonism of NKA aerosol-induced respiratory effects in conscious guinea pigs; format: in vivo, guinea pig; conditions: dose dependent
Experimental: as §1
During the course of a typical experiment in which airway responsiveness to various bronchoconstricting agents was examined, aerosols were delivered for 19 min (0.33 ml/min) using a DeVilbiss Ultraneb 99 ultrasonic nebulizer and animals monitored during this time. […]

NK1 receptors = molecular target: T3, NK1 receptors (Cavia porcellus, UniProt P30547); experiment: Antagonism of SP-induced plasma protein extravasation in guinea pig trachea; format: in vivo; conditions: for relative potency as NK-1 receptor antagonists (in words): Example 3 versus its (+)-enantiomer Example 20A
T3 construct: measuring Evans Blue dye accumulation in guinea pig trachea; from tissue; host or cells: guinea pig trachea and primary bronchi, whole animal in vivo
T3 sequence (P30547 whole entry): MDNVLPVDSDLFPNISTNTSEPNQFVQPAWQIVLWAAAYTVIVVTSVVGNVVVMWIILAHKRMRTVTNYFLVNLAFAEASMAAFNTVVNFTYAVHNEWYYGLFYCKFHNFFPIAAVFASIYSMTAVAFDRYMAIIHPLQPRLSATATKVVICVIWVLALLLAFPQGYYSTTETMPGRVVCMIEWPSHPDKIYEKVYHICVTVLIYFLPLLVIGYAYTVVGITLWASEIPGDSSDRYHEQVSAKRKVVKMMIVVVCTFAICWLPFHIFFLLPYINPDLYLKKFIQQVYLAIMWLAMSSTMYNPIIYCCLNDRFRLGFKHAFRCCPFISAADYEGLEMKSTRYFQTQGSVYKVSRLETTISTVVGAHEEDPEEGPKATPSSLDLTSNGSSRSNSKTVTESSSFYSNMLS
Experimental: SP-induced protein leakage through postcapillary venules was assessed by measuring Evans Blue dye accumulation in guinea pig trachea. Animals were anesthetized with pentobarbital then injected with Evans Blue dye (20 mg/kg, i.v., prepared in 0.9% NaCl solution). One minute after dye administration, the antagonist was administered (i.v.) followed by SP (0.3 nmole/kg, i.v.) and, after 5 min, excess dye removed from the circulation by transcardiac perfusion with 50 ml 0.9% NaCl solution. The trachea and primary bronchi were removed, blotted dry and weighed. Dye quantitation was performed spectrophotometrically ([…]) after extracting tissues in formamide for 24 hr at 50° C. Values were subtracted from background (dye only, no agonist). ED50 (dose of compound which inhibits SP-induced plasma protein extravasation by 50%) was calculated from linear regression analysis.

| Compound | effect on capsaicin aerosol effects (in words) (NK1 and NK2 receptors [1]) | SRE NUMBER (NK1 and NK2 receptors [2]; 10 mg/kg i.v.) | effect on capsaicin-induced respiratory effects (in words) (NK1 and NK2 receptors [2]) | NK-2 RECEPTOR -SLOPE [4] | effect on NKA aerosol respiratory effects (in words) (NK2 receptor) | relative potency as NK-1 receptor antagonists (in words) (NK1 receptors) | other results |
| --- | --- | --- | --- | --- | --- | --- | --- |
| COc1cc(C(=O)N2CCC(CCN3CCC(C(N)=O)(c4ccccc4)CC3)(c3ccc(Cl)c(Cl)c3)C2)cc(OC)c1OC (racemic) [Example 3A, 1-[2-[3-(3,4-dichloro-phenyl)-1-(3,4,5-trimethoxy-benzoyl)-pyrrolidin-3-yl]-ethyl]-4-phenyl-piperidine-4-carboxylic acid amide hydrochloride] | antagonize the effects of capsaicin aerosol | 8.50 ± 1.9 | attenuate capsaicin-induced respiratory effects | 0.73 | – | – | SRE NUMBER (NK1 and NK2 receptors [1]; 25 mg/kg oral): 4.6 ± 1.0; SRE NUMBER (NK1 and NK2 receptors [1]; 50 mg/kg oral): 2.8 ± 0.8; SRE NUMBER (NK1 and NK2 receptors [1]; 100 mg/kg oral): 2.1 ± 0.5; NK-1 RECEPTOR -SLOPE ([3]; Schild analysis, SP, mean (95% confidence limits)): 0.90 |
| COc1cc(C(=O)N2CCC(CCN3CCC(C(N)=O)(c4ccccc4)CC3)(c3ccc(Cl)c(Cl)c3)C2)cc(OC)c1OC.Cl (single isomer, unassigned; (+)) [Example 20A, (+)-1-[2-[3-(3,4-dichloro-phenyl)-1-(3,4,5-trimethoxy-benzoyl)-pyrrolidin-3-yl]-ethyl]-4-phenyl-piperidine-4-carboxylic acid amide hydrochloride] | – | 3.3 ± 1.1 | attenuate capsaicin-induced respiratory effects | – | reduced the effects of NKA aerosol | equipotent | SRE NUMBER (NK1 and NK2 receptors [2]; 1 mg/kg i.v.): 9.9 ± 2.7; SRE NUMBER (NK1 and NK2 receptors [2]; 2.5 mg/kg i.v.): 8.3 ± 1.6; SRE NUMBER (NK1 and NK2 receptors [2]; 5 mg/kg i.v.): 4.4 ± 1.9 |
| COc1cc(C(=O)N2CCC(CCN3CCC(C(N)=O)(c4ccccc4)CC3)(c3ccc(Cl)c(Cl)c3)C2)cc(OC)c1OC (single isomer, unassigned; (+)) [Example 20] | – | – | – | 1.00 | – | – | – |
| COc1cc(C(=O)N2CCC(CCN3CCC(C(N)=O)(c4ccccc4)CC3)(c3ccc(Cl)c(Cl)c3)C2)cc(OC)c1OC (stereo not shown) [Example 3, 1-[2-[3-(3,4-dichloro-phenyl)-1-(3,4,5-trimethoxy-benzoyl)-pyrrolidin-3-yl]-ethyl]-4-phenyl-piperidine-4-carboxylic acid amide] | – | – | – | – | reduced the effects of NKA aerosol | equipotent | antagonism of SP induced PI turnover (in words) ([3]; FIG. 1a): dose related antagonism; agonist activity, PI turnover (in words) ([3]; compound alone): no agonist activity; antagonism of NKA induced PI turnover (in words) ([4]; FIG. 1b): dose related antagonism; agonist activity, PI turnover (in words) ([4]; compound alone): no agonist activity; antagonism of SP-induced plasma protein extravasation (in words) (NK1 receptors; FIG. 2): dose related antagonism |
| COc1cccc(OC)c1C(=O)N1CCC(CCN2CCC(C(N)=O)(c3ccccc3)CC2)(c2ccc(Cl)c(Cl)c2)C1 (stereo not shown) [Example 5A, 1-[2-[3-(3,4-dichloro-phenyl)-1-(2,6-dimethoxy-benzoyl)-pyrrolidin-3-yl]-ethyl]-4-phenyl-piperidine-4-carboxylic acid amide hydrochloride] | – | – | – | – | reduced the effects of NKA aerosol | – | – |
| COc1cccc(OC)c1C(=O)N1CCC(CCN2CCC(C(N)=O)(c3ccccc3)CC2)(c2ccc(Cl)c(Cl)c2)C1 (stereo not shown) [Example 5] | antagonize the effects of capsaicin aerosol | – | – | – | – | – | – |
